# Data published in patent US20060069132A1, “Azolecarboxamide herbicides” (priority 2004, published 2006).
# Legend:
# morningglory [1] = assay: Test A pre-/postemergence herbicide test; type: in vivo, Ipomoea spp.
# Outline: (§1)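 Seeds sown in sandy loam received a preemergence directed soil spray of compound in non-phytotoxic solvent with surfactant; postemergence plants (2–10 cm, one- to two-leaf stage) were sprayed to runoff at the same time. After ~10 days in greenhouse, injury was rated visually versus untreated controls (0 = no effect, 100 = complete control).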
# velvetleaf [2] = assay: Test A pre-/postemergence herbicide test; type: in vivo, Abutilon theophrasti
# Outline: as §1
# lambsquarters = assay: Test B pre-/postemergence herbicide test; type: in vivo, Chenopodium album; details: for Plant response rating, Lambsquarters: preemergence; for Lambsquarters plant response rating: postemergence, visual rating, scale 0 (no effect) to 100 (complete control)
# Outline: (§2)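 Test chemicals in a non-phytotoxic solvent mixture with surfactant were applied preemergence to seeded species and postemergence to plants 2-18 cm tall (1- to 4-leaf stage); rice and barnyardgrass were also tested in a flooded paddy at the 2-leaf stage. Visual rating versus controls after 13-15 days in greenhouse, scale 0 (no effect) to 100 (complete control).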
# [3] = tested on: small flower umbrella sedge; assay: Test B flooded paddy test; type: in vivo, Cyperus difformis; details: 1000 g ai/ha, visual rating, scale 0 to 100 (0 no effect, 100 complete control), 13 to 15 days
# Outline: (§3)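 Scale 0–100: zero equals no visible effect, 100 complete control, judged by eye relative to controls. Timing: 13 to 15 days in greenhouse post-treatment. Growth stage at spraying: two leaves (paddy) or one to four leaves, 2–18 cm (postemergence).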
# barnyardgrass [4] = assay: Test A pre-/postemergence herbicide test; type: in vivo, Echinochloa crus-galli
# Outline: as §1
# ducksalad = assay: Test B flooded paddy test; type: in vivo, Heteranthera limosa; details: 1000 g ai/ha, visual rating, scale 0 to 100 (0 no effect, 100 complete control), 13 to 15 days
# Outline: as §3
# blackgrass = assay: Test B postemergence herbicide test; type: in vivo, Alopecurus myosuroides; details: postemergence, visual rating, scale 0 (no effect) to 100 (complete control)
# Outline: as §3
# giant foxtail [5] = assay: Test A pre-/postemergence herbicide test; type: in vivo, Setaria faberi
# Outline: as §1
# rice = assay: Test B flooded paddy test; type: in vivo, Oryza sativa; details: 1000 g ai/ha, visual rating, scale 0 to 100 (0 no effect, 100 complete control), 13 to 15 days
# Outline: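 Paddy species grown to the 2-leaf stage under flooding; blackgrass sprayed postemergence at 2–18 cm (1- to 4-leaf stage). Plants kept in a greenhouse for 13 to 15 days, then visually rated against controls on 0 (no effect) to 100 (complete control).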
# barnyardgrass [6] = assay: Test B flooded paddy test; type: in vivo, Echinochloa crus-galli; details: 1000 g ai/ha, visual rating, scale 0 to 100 (0 no effect, 100 complete control), 13 to 15 days
# Outline: as §3
# wheat = assay: Test B postemergence herbicide test; type: in vivo, Triticum aestivum; parameters: key to Wheat plant response rating: 0 = no effect, 100 = complete control; details: postemergence, visual rating, scale 0 (no effect) to 100 (complete control)
# Outline: (§4)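 Greenhouse test; postemergence application to plants at 1–4 leaves (2–18 cm); paddy species at 2 leaves; evaluated visually vs controls at 13–15 days; scale 0–100 (100 = complete control).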
# pigweed = assay: Test B pre-/postemergence herbicide test; type: in vivo, Amaranthus retroflexus; details: for Plant response rating, Pigweed: preemergence; for Pigweed plant response rating: postemergence, visual rating, scale 0 (no effect) to 100 (complete control)
# Outline: as §2
# large crabgrass [7] = assay: Test A pre-/postemergence herbicide test; type: in vivo, Digitaria sanguinalis
# Outline: as §1
# giant foxtail [8] = assay: Test B pre-/postemergence herbicide test; type: in vivo, Setaria faberi; details: for Plant response rating, Foxtail, Giant: preemergence; for Foxtail, Giant plant response rating: postemergence, visual rating, scale 0 (no effect) to 100 (complete control)
# Outline: as §2
# barnyardgrass [9] = assay: Test B pre-/postemergence herbicide test; type: in vivo, Echinochloa crus-galli; details: for Plant response rating, Barnyardgrass: preemergence; for Barnyardgrass plant response rating: postemergence, visual rating, scale 0 (no effect) to 100 (complete control)
# Outline: (§5)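 Formulation: non-phytotoxic solvent mix with surfactant. Timing: preemergence on seed and postemergence on 2–18 cm plants, applied concurrently. Readout after 13–15 d greenhouse: visual 0–100 control rating against controls.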
# Surinam grass = assay: Test B pre-/postemergence herbicide test; type: in vivo, Urochloa decumbens; details: for Plant response rating, Surinam Grass: preemergence; for Surinam Grass plant response rating: postemergence, visual rating, scale 0 (no effect) to 100 (complete control)
# Outline: as §2
# redroot pigweed = assay: Test A pre-/postemergence herbicide test; type: in vivo, Amaranthus retroflexus
# Outline: as §1
# large crabgrass [10] = assay: Test B pre-/postemergence herbicide test; type: in vivo, Digitaria sanguinalis; details: for Plant response rating, Crabgrass, Large: preemergence; for Crabgrass, Large plant response rating: postemergence, visual rating, scale 0 (no effect) to 100 (complete control)
# Outline: as §2
# corn = assay: Test B pre-/postemergence herbicide test; type: in vivo, Zea mays; details: for Plant response rating, Corn: preemergence; for Corn plant response rating: postemergence, visual rating, scale 0 (no effect) to 100 (complete control)
# Outline: as §2
# cocklebur = assay: Test B pre-/postemergence herbicide test; type: in vivo, Xanthium strumarium; details: for Plant response rating, Cocklebur: preemergence; for Cocklebur plant response rating: postemergence, visual rating, scale 0 (no effect) to 100 (complete control)
# Outline: as §5
# wild oat = assay: Test B postemergence herbicide test; type: in vivo, Avena fatua; details: postemergence, visual rating, scale 0 (no effect) to 100 (complete control)
# Outline: as §4
# morningglory [11] = assay: Test B pre-/postemergence herbicide test; type: in vivo, Ipomoea coccinea; details: for Morningglory plant response rating: postemergence, visual rating, scale 0 (no effect) to 100 (complete control)
# Outline: as §5
# velvetleaf [12] = assay: Test B pre-/postemergence herbicide test; type: in vivo, Abutilon theophrasti; details: for Plant response rating, Velvetleaf: preemergence; for Velvetleaf plant response rating: postemergence, visual rating, scale 0 (no effect) to 100 (complete control)
# Outline: as §2
# [13] = Postemergence, 500 g ai/ha, 0 to 100 scale, 0 no effect, 100 complete control
# [14] = Postemergence, 2000 g ai/ha, 0 to 100 scale, 0 no effect, 100 complete control
# [15] = Preemergence, 500 g ai/ha, visual rating, 0 to 100 scale (0 no effect, 100 complete control)
# [16] = Preemergence, 2000 g ai/ha, visual rating, 0 to 100 scale (0 no effect, 100 complete control)
# [17] = preemergence, 500 g ai/ha, visual injury, 0 to 100 scale (0 no effect, 100 complete control)
# [18] = 500 g ai/ha, visual rating 0-100, 0 no effect, 100 complete control
# [19] = 125 g ai/ha, 0 to 100 scale, 0 is no effect, 100 is complete control
smiles,measurement,setting,value
CCCCNS(=O)(=O)c1cccc(NC(=O)c2cc(C(C)(C)C)nn2C)c1 [Compound 125],Morningglory plant response rating,morningglory [1]; [13],0
same,"Plant response rating, Morningglory",morningglory [1]; [14],0
same,Morningglory plant response rating,morningglory [1]; [15],0
same,Morningglory plant response rating,morningglory [1]; [16],0
same,Velvetleaf plant response rating,velvetleaf [2]; [13],0
same,"Plant response rating, Velvetleaf",velvetleaf [2]; [14],0
same,Velvetleaf plant response rating,velvetleaf [2]; [16],0
same,Velvetleaf plant response rating,velvetleaf [2]; [17],0
same,"Plant response rating, Lambsquarters",lambsquarters; [18],0
same,Lambsquarters plant response rating,lambsquarters; 125 g ai/ha,0
same,Lambsquarters plant response rating,lambsquarters; 500 g ai/ha,20
same,"Plant response rating, Lambsquarters",lambsquarters; [19],0
same,"Sedge, Umbrella plant response rating",[3],0
same,Barnyardgrass plant response rating,barnyardgrass [4]; [13],0
same,"Plant response rating, Barnyardgrass",barnyardgrass [4]; [14],0
same,Barnyardgrass plant response rating,barnyardgrass [4]; [15],0
same,Barnyardgrass plant response rating,barnyardgrass [4]; [16],0
same,Ducksalad plant response rating,ducksalad,0
same,Blackgrass plant response rating,blackgrass; 125 g ai/ha,0
same,Blackgrass plant response rating,blackgrass; 500 g ai/ha,0
same,"Foxtail, Giant plant response rating",giant foxtail [5]; [13],0
same,"Plant response rating, Foxtail, Giant",giant foxtail [5]; [14],0
same,"Foxtail, Giant plant response rating",giant foxtail [5]; [15],0
same,"Foxtail, Giant plant response rating",giant foxtail [5]; [16],0
same,Rice plant response rating,rice,0
same,Barnyardgrass plant response rating,barnyardgrass [6],0
same,Wheat plant response rating,wheat; 125 g ai/ha,0
same,Wheat plant response rating,wheat; 500 g ai/ha,0
same,"Plant response rating, Pigweed",pigweed; [18],0
same,Pigweed plant response rating,pigweed; 125 g ai/ha,0
same,Pigweed plant response rating,pigweed; 500 g ai/ha,0
same,"Plant response rating, Pigweed",pigweed; [19],0
same,"Crabgrass, Large plant response rating",large crabgrass [7]; [13],0
same,"Plant response rating, Crabgrass, Large",large crabgrass [7]; [14],0
same,"Crabgrass, Large plant response rating",large crabgrass [7]; [15],0
same,"Crabgrass, Large plant response rating",large crabgrass [7]; [16],0
same,"Plant response rating, Foxtail, Giant",giant foxtail [8]; [18],0
same,"Foxtail, Giant plant response rating",giant foxtail [8]; 125 g ai/ha,0
same,"Foxtail, Giant plant response rating",giant foxtail [8]; 500 g ai/ha,0
same,"Plant response rating, Foxtail, Giant",giant foxtail [8]; [19],0
same,"Plant response rating, Barnyardgrass",barnyardgrass [9]; [18],0
same,Barnyardgrass plant response rating,barnyardgrass [9]; 125 g ai/ha,0
same,Barnyardgrass plant response rating,barnyardgrass [9]; 500 g ai/ha,0
same,"Plant response rating, Barnyardgrass",barnyardgrass [9]; [19],0
same,"Plant response rating, Surinam Grass",Surinam grass; [18],0
same,Surinam Grass plant response rating,Surinam grass; 125 g ai/ha,0
same,Surinam Grass plant response rating,Surinam grass; 500 g ai/ha,10
same,"Plant response rating, Surinam Grass",Surinam grass; [19],0
same,Pigweed plant response rating,redroot pigweed; [13],20
same,"Plant response rating, Pigweed",redroot pigweed; [14],20
same,Pigweed plant response rating,redroot pigweed; [16],0
same,Pigweed plant response rating,redroot pigweed; [17],0
same,"Plant response rating, Crabgrass, Large",large crabgrass [10]; [18],0
same,"Crabgrass, Large plant response rating",large crabgrass [10]; 125 g ai/ha,0
same,"Crabgrass, Large plant response rating",large crabgrass [10]; 500 g ai/ha,0
same,"Plant response rating, Crabgrass, Large",large crabgrass [10]; [19],0
same,"Plant response rating, Corn",corn; [18],0
same,Corn plant response rating,corn; 125 g ai/ha,0
same,Corn plant response rating,corn; 500 g ai/ha,0
same,"Plant response rating, Corn",corn; [19],0
same,"Plant response rating, Cocklebur",cocklebur; [18],0
same,Cocklebur plant response rating,cocklebur; 125 g ai/ha,0
same,Cocklebur plant response rating,cocklebur; 500 g ai/ha,0
same,"Plant response rating, Cocklebur",cocklebur; [19],0
same,"Oat, Wild plant response rating",wild oat; 125 g ai/ha,0
same,"Oat, Wild plant response rating",wild oat; 500 g ai/ha,0
same,Morningglory plant response rating,morningglory [11]; 125 g ai/ha,0
same,Morningglory plant response rating,morningglory [11]; 500 g ai/ha,0
same,"Plant response rating, Morningglory","morningglory [11]; preemergence, 125 g ai/ha, 0 to 100 scale, 0 is no effect, 100 is complete control",0
same,"Plant response rating, Velvetleaf",velvetleaf [12]; [18],0
same,Velvetleaf plant response rating,velvetleaf [12]; 125 g ai/ha,0
same,Velvetleaf plant response rating,velvetleaf [12]; 500 g ai/ha,0
same,"Plant response rating, Velvetleaf",velvetleaf [12]; [19],0
